Assay results published in PubChem BioAssay AID248 (DTP/NCI, 2004).
Values joined by “and” are separate entries in the source; they are usually repeats but may differ in a detail not shown here. Equal entries are not always repeated. Inconclusive results and toxic doses are left out. Cut-off read from the data, not from the text of the source: active = T/C of 150% or more; inactive = T/C below 125%.

Tested on: L1210 leukemia ip in BDF1 mice, survival T/C
Experiment: NCI In Vivo Anticancer Drug Screen. Data for tumor model L1210 Leukemia (intraperitoneal) in B6D2F1 (BDF1) mice
Settings: endpoint: mean survival time, higher = longer survival
Method in brief: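 In this screen, tumor-bearing mice given compound are compared to those given vehicle, and their survival values are reported as a treated-to-control quotient.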

[1] = dose: 50.0 mg/kg/injection, schedule: Q01DX001 (ip), vehicle: carboxymethylcellulose (CMC)
[2] = dose: 100.0 mg/kg/injection, schedule: Q01DX001 (ip), vehicle: carboxymethylcellulose (CMC)
[3] = dose: 100.0 mg/kg/injection, schedule: Q01DX009 (ip), vehicle: saline with Tween-80
[4] = dose: 100.0 mg/kg/injection, schedule: Q04DX003 (ip), vehicle: saline
[5] = dose: 200.0 mg/kg/injection, schedule: Q01DX001 (ip), vehicle: carboxymethylcellulose (CMC)
[6] = dose: 200.0 mg/kg/injection, schedule: Q01DX009 (ip), vehicle: saline with Tween-80
[7] = dose: 200.0 mg/kg/injection, schedule: Q04DX003 (ip), vehicle: saline
[8] = dose: 400.0 mg/kg/injection, schedule: Q01DX001 (ip), vehicle: carboxymethylcellulose (CMC)
[9] = dose: 400.0 mg/kg/injection, schedule: Q01DX009 (ip), vehicle: saline with Tween-80
[10] = dose: 400.0 mg/kg/injection, schedule: Q04DX003 (ip), vehicle: saline
[11] = dose: 100.0 mg/kg/injection, schedule: Q01DX009 (ip), vehicle: saline
[12] = dose: 200.0 mg/kg/injection, schedule: Q01DX009 (ip), vehicle: saline
[13] = dose: 400.0 mg/kg/injection, schedule: Q01DX009 (ip), vehicle: saline
[14] = dose: 100.0 mg/kg/injection, schedule: Q01DX001 (ip), vehicle: saline
[15] = dose: 200.0 mg/kg/injection, schedule: Q01DX001 (ip), vehicle: saline
[16] = dose: 400.0 mg/kg/injection, schedule: Q01DX001 (ip), vehicle: saline
[17] = dose: 100.0 mg/kg/injection, schedule: Q04DX003 (ip), vehicle: Klucel (hydroxypropylcellulose) (HPC)
[18] = dose: 200.0 mg/kg/injection, schedule: Q04DX003 (ip), vehicle: Klucel (hydroxypropylcellulose) (HPC)
[19] = dose: 400.0 mg/kg/injection, schedule: Q04DX003 (ip), vehicle: Klucel (hydroxypropylcellulose) (HPC)
[20] = dose: 50.0 mg/kg/injection, schedule: Q04DX003 (ip), vehicle: saline

Measured: T/C

CC(=O)Nc1ccc2c(c1)Cc1cc(NC=O)ccc1-2
inactive: [1] 101 % of control | [2] 95 % of control | [3] 102 % of control | [4] 97 % of control | [5] 101 % of control | [6] 95 % of control | [7] 93 % of control | [8] 101 % of control | [9] 98 % of control | [10] 95 % of control

C/C(=N\NC(N)=S)c1cccs1
inactive: dose: 12.5 mg/kg/injection, schedule: Q04DX003 (ip), vehicle: saline with Tween-80 93 % of control | dose: 25.0 mg/kg/injection, schedule: Q04DX003 (ip), vehicle: saline with Tween-80 103 % of control | dose: 50.0 mg/kg/injection, schedule: Q04DX003 (ip), vehicle: saline with Tween-80 101 % of control

COC1=C(Nc2cccc(C)c2)C(=O)C(OC)=C(Nc2cccc(C)c2)C1=O
inactive: [1] 94 % of control | [2] 96 % of control | [5] 94 % of control | [8] 91 % of control

O=C(O)C1CC2CCC1C2 (configuration not stated)
inactive: [11] 100 % of control | [12] 104 % of control | [13] 92 % of control

O=C(c1ccccc1)c1c(-c2ccccc2)c(-c2ccccc2)n(-c2ccccc2)c1C(=O)c1ccccc1
inactive: dose: 22.2 mg/kg/injection, schedule: Q01DX001 (ip), vehicle: carboxymethylcellulose (CMC) 94 % of control and 96 % of control | dose: 33.35 mg/kg/injection, schedule: Q01DX001 (ip), vehicle: carboxymethylcellulose (CMC) 91 % of control | [1] 94 % of control | dose: 75.0 mg/kg/injection, schedule: Q01DX001 (ip), vehicle: carboxymethylcellulose (CMC) 94 % of control

CC(=O)NO
inactive: dose: 100.0 mg/kg/injection, schedule: Q04DX002 (ip), vehicle: saline 102 % of control | dose: 200.0 mg/kg/injection, schedule: Q04DX002 (ip), vehicle: saline 112 % of control | dose: 400.0 mg/kg/injection, schedule: Q04DX002 (ip), vehicle: saline 108 % of control

O=C(NO)c1ccc(C(=O)NO)c(Br)c1
inactive: [11] 103 % of control | [4] 107 % of control | [12] 112 % of control | [7] 107 % of control | [13] 108 % of control | [10] 105 % of control

N#CC12OC1(C#N)C(=O)c1ccccc1C2=O (configuration not stated)
inactive: dose: 75.0 mg/kg/injection, schedule: Q01DX001 (ip), vehicle: Klucel (hydroxypropylcellulose) (HPC) 92 % of control

CC(C)(C)C1CCC(N=C(N)CCl)CC1 (configuration not stated)
inactive: dose: 6.25 mg/kg/injection, schedule: Q01DX009 (ip), vehicle: Klucel (hydroxypropylcellulose) (HPC) 98 % of control | dose: 12.5 mg/kg/injection, schedule: Q01DX009 (ip), vehicle: Klucel (hydroxypropylcellulose) (HPC) 102 % of control | dose: 12.5 mg/kg/injection, schedule: Q04DX002 (ip), vehicle: Klucel (hydroxypropylcellulose) (HPC) 103 % of control | dose: 25.0 mg/kg/injection, schedule: Q01DX009 (ip), vehicle: Klucel (hydroxypropylcellulose) (HPC) 98 % of control | dose: 25.0 mg/kg/injection, schedule: Q04DX002 (ip), vehicle: Klucel (hydroxypropylcellulose) (HPC) 100 % of control

O=[N+]([O-])c1ccc(SCN(CSc2ccc([N+](=O)[O-])cc2)Cc2ccccc2)cc1
inactive: [14] 96 % of control | [15] 102 % of control | [16] 90 % of control

CSc1ncnc2c1ncn2NC(=O)C1CCC(=O)N1 (configuration not stated)
inactive: [11] 104 % of control | [17] 107 % of control | [12] 104 % of control | [18] 100 % of control | [13] 106 % of control | [19] 109 % of control

FC(F)(F)C(Cl)Br (configuration not stated)
inactive: dose: 25.0 mg/kg/injection, schedule: Q04DX003 (ip), vehicle: saline 106 % of control | [20] 104 % of control | [14] 101 % of control | dose: 100.0 mg/kg/injection, schedule: Q04DX003 (ip), vehicle: saline with Tween-80 98 % of control | [4] 97 % of control | dose: 150.0 mg/kg/injection, schedule: Q04DX003 (ip), vehicle: saline 98 % of control | dose: 200.0 mg/kg/injection, schedule: Q04DX003 (ip), vehicle: saline with Tween-80 97 % of control | dose: 225.0 mg/kg/injection, schedule: Q04DX003 (ip), vehicle: saline 101 % of control | dose: 335.0 mg/kg/injection, schedule: Q04DX003 (ip), vehicle: saline 96 % of control | dose: 400.0 mg/kg/injection, schedule: Q04DX003 (ip), vehicle: saline with Tween-80 106 % of control | dose: 1000.0 mg/kg/injection, schedule: Q05DX002 (ip), vehicle: water 97 % of control | dose: 2000.0 mg/kg/injection, schedule: Q05DX002 (ip), vehicle: water 108 % of control

O=c1[nH]cnc2c1nnn2C1CC(CO)C(O)C1O (configuration not stated)
inactive: [20] 92 % of control | [4] 92 % of control | [7] 96 % of control

O=C(N/N=C/c1ccc(Cl)c(Cl)c1)c1cccc2ccccc12
inactive: [14] 87 % of control | [16] 90 % of control

O=c1c(Br)c(Cl)nc2ccccn12
inactive: [14] 95 % of control | [15] 96 % of control | [16] 93 % of control

N#CCC(=O)O
inactive: dose: 18.75 mg/kg/injection, schedule: Q01DX009 (ip), vehicle: saline 98 % of control | dose: 37.5 mg/kg/injection, schedule: Q01DX009 (ip), vehicle: saline 95 % of control | dose: 75.0 mg/kg/injection, schedule: Q01DX009 (ip), vehicle: saline 90 % of control

O=C1C=C(c2ccccc2)C(c2ccccc2)=C1
inactive: [1] 101 % of control | [2] 95 % of control | [5] 92 % of control | [8] 103 % of control

O=C(O)CCc1cnc2ccccc2n1
inactive: dose: 100.0 mg/kg/injection, schedule: Q01DX009 (ip), vehicle: Klucel (hydroxypropylcellulose) (HPC) 97 % of control | [17] 106 % of control | dose: 200.0 mg/kg/injection, schedule: Q01DX009 (ip), vehicle: Klucel (hydroxypropylcellulose) (HPC) 95 % of control | [18] 95 % of control | dose: 400.0 mg/kg/injection, schedule: Q01DX009 (ip), vehicle: Klucel (hydroxypropylcellulose) (HPC) 96 % of control | [19] 92 % of control

COc1ccc(-c2c(C)c(C)[nH]c(=O)c2C(=O)O)c(OCc2ccccc2)c1OC
inactive: [3] 100 % of control | [6] 100 % of control | [9] 97 % of control

CSc1nc(N)nc2c1ncn2CCCl
inactive: [4] 103 % of control | [7] 96 % of control | [10] 97 % of control

CCCCN1C(=O)C2CCc3ccncc3C2C1=O (configuration not stated)
inactive: [4] 103 % of control | [7] 97 % of control | [10] 103 % of control

CC(C)=CCNc1ncnc2c1c(C(N)=O)cn2C1OC(CO)C(O)C1O (configuration not stated)
inactive: dose: 100.0 mg/kg/injection, schedule: Q01DX005 (ip), vehicle: saline 107 % of control | dose: 200.0 mg/kg/injection, schedule: Q01DX005 (ip), vehicle: saline 123 % of control
